According to patent EP3730147A1, “PREPARATION WITH HYPOGLYCEMIC EFFECT” (Instytut Biotechnologii i Badan Medycznych "Biolamed" SP. Z …, priority 2019, dated 2020):
Marks after values point to notes of the source that are not given here.

Legend:
[1] = tested on: Wistar rats; assay: Blood glucose after glucose load in rats with alloxan-induced diabetes; type: in vivo; conditions: 100 mg/kg; for Glucose concentration: glucose load 4 g/kg 4 hours after drug; for time after glucose administration at which glucose indicators normalized: alloxan diabetes, glucose load 4 g/kg
Procedure: The study was conducted on Wistar rats weighing 220-250 g. All animals were subjected to two weeks of observation prior to the experiment to exclude infection. Rats were housed in standard cages, 5 individuals in each. The animals stayed in a room with a temperature of 22±2°C, air humidity 60-70% and in natural lighting (12/12 in a day/night cycle). The animals had free access to water and standard laboratory feed ad libitum.
Diabetes was caused by a single intraperitoneal administration of alloxan at a dose of 170 mg/kg bw. The development of diabetes was observed on the basis of the main symptoms (polydipsia, polyphagia), glycosuria and hyperglycemia. Animals with high glucose levels of at least 14 mmol/L were selected for the experiment.
Animals were randomized into 6 groups of 8 individuals each. The first group, the control group, was formed from healthy animals without diabetes. The control group (healthy animals) received NaCl 1 ml/kg; Group 2. - diabetes mellitus (DM), received NaCl 1 ml/kg; Group 3. - DM + Betulin, at a dose of 100 mg/kg; Group 4. - DM + Lupeol, at a dose of 100 mg/kg; Group 5 - DM + Betulonic acid, at a dose of 100 mg/kg; Group 6 - DM + Betulinic acid, at a dose of 100 mg/kg; Group 7 - DM + Betulin-3,28-diacetate, at a dose of 100 mg/kg.
4 hours after drug administration, all animals intragastrically received a 40% glucose solution at a dose of 4 g/kg. The time of administration is determined in the available literature on its pharmacokinetics - peak plasma levels of lupane triterpenoids in rats are observed 3-4 hours after intragastric administration.
Peripheral blood glucose was determined using a Roche AccuCheck Active meter (USA) before and after glucose administration every 60 minutes for 5 hours. A drop of blood was taken from the tail tip incision.

[2] = molecular target: T1, rat liver glucose-6-phosphate dehydrogenase (DG-6-P) (Rattus norvegicus, UniProt P05370); assay: Effect on DG-6-P activity in 5.6-fold purified rat liver enzyme; type: biochemical; conditions: for remaining activity at 5 µM / remaining activity at 25 µM: read-out: % of control (DG-6-P activity)
T1 construct: an additional enzyme purification procedure was performed; from tissue; host or cells: rat liver (5.6-fold purified enzyme preparation)
T1 sequence (P05370 whole entry): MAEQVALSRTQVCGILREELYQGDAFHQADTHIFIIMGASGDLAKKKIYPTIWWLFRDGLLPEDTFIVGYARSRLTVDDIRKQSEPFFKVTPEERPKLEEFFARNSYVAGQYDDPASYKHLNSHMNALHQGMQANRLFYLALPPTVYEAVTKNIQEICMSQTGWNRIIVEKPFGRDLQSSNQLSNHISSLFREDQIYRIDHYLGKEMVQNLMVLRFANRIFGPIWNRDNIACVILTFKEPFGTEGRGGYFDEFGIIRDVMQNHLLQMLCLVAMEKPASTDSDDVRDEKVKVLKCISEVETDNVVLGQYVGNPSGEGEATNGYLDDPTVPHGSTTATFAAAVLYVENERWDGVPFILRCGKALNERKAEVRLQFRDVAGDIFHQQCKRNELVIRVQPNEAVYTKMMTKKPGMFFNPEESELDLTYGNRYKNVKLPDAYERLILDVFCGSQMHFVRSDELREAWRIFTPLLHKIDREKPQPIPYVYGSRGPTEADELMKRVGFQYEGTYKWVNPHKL
Description: (§1) Rat liver glycogen phosphorylase, rat liver and skeletal muscle hexokinase, rat liver glucose-6-phosphate dehydrogenase (DG-6-P), rat liver and skeletal muscle phosphofructokinase were selected as potential targets for in vitro testing of the hypoglycemic activity of lupane triterpenoids.
Surprising results were obtained by examining the effect of lupane triterpenoids on glucose-6-phosphate activity. […] In both cases, the observed effects were dose-dependent. […] Table 1. Effect of lupane triterpenoids on DG-6-P activity in 5.6-fold purified rat liver

[3] = tested on: Wistar rats; assay: Pancreatic islet morphometry in rats with alloxan-induced diabetes, 30 days treatment; type: in vivo
Procedure: The possible cytoprotective effect of lupane triterpenoids on the functional state of the pancreas in alloxan-induced diabetes in rats was evaluated. Alloxane was used to induce diabetes, which causes damage to the necrotic islet type pancreatic apparatus due to selective accumulation in β-cells and induction of massive free radical generation. The study was conducted on Wistar rats weighing 220-250 g. All animals were subjected to two weeks of observation prior to the experiment to exclude infection. Rats were housed in standard cages, 5 individuals in each. […] The animals had free access to water and standard laboratory feed ad libitum. Diabetes was caused by a single intraperitoneal administration of alloxan at a dose of 170 mg/kg bw. The development of diabetes was observed on the basis of the main symptoms (polydipsia, polyphagia), glycosuria and hyperglycemia. Animals with high glucose levels of at least 14 mmol/L were selected for the experiment. Animals were randomized into 8 groups of 8 individuals each. The first group, the control group, was formed from healthy animals without diabetes. The control group (healthy animals) received NaCl 1 ml/kg; Group 2 - DM + Lupeol, at a dose of 100 mg/kg; Group 3 - DM + Betulonic acid, at a dose of 100 mg/kg; Group 4 - DM + 3,28-betulin diacetate, at a dose of 100 mg/kg; Group 5 - DM + Betulinic acid, at a dose of 50 mg/kg; Group 6 - DM + Betulinic acid, at a dose of 100 mg/kg; Group 7 - DM + Betulin, at a dose of 50 mg/kg; Group 8 - DM + Betulin, at a dose of 100 mg/kg.

[4] = tested on: Wistar rats; assay: Blood glucose in rats with glucose-induced hyperglycemia (OGTT-2 / OGTT-4); type: in vivo; conditions: compared to control animals
Procedure: To study the effect of betulin, 3,28-diacetate betulin, betulinic acid and lupeol on blood glucose levels in rats with induced hyperglycemia, the animals received 2 hours prior to glucose administration, test substances at doses of 100 or 1000 mg/kg. Hyperglycaemia was caused by oral administration of a 40% glucose solution at a dose of 2 g/kg (OGTT-2) or 4 g/kg (OGTT-4). The study was conducted on Wistar rats weighing 220-250 g. All animals were subjected to two weeks of observation prior to the experiment to exclude infection. Rats were housed in standard cages, 5 individuals in each. […] The animals had free access to water and standard laboratory feed ad libitum. Animals were randomized into 5 groups, 8 individuals each. Hyperglycaemia was caused by administration of a 40% glucose solution at doses of 2 or 4 g/kg. […] Blood glucose was determined with a Roche AccuCheck Active glucometer (USA) before and after glucose administration every 30 minutes for 2 hours and then every 60 minutes for 6 hours.

[5] = molecular target: T2, Rat liver glycogen phosphorylase (Rattus norvegicus, UniProt P09811); assay: Effect on glycogen phosphorylase activity in rat liver homogenates and post-mitochondrial fraction; type: biochemical
T2 construct: from tissue; host or cells: rat liver homogenates and post-mitochondrial fraction
T2 sequence (P09811 1-850): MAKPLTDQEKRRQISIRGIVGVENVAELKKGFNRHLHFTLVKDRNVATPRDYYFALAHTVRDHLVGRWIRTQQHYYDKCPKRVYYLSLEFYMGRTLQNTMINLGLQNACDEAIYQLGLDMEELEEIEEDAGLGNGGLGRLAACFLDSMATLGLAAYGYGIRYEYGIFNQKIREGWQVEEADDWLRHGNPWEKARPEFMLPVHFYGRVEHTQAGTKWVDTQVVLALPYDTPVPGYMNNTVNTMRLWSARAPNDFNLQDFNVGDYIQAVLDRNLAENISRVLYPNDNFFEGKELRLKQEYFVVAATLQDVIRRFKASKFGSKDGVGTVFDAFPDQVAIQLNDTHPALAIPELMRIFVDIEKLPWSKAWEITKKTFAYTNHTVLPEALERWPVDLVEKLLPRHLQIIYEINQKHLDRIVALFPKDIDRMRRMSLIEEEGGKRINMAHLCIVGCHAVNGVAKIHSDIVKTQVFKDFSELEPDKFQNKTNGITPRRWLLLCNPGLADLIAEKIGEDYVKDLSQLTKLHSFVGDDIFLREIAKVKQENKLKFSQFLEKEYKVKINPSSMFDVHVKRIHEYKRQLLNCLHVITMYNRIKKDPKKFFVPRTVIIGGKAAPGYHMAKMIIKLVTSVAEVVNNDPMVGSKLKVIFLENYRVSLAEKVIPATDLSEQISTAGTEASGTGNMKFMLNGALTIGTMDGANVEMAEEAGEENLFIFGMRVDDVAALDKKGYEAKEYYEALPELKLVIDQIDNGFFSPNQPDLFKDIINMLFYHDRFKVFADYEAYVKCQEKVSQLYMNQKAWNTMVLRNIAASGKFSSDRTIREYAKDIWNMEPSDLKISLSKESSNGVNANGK
Description: as §1

[6] = tested on: pancreatic islet β-cells; assay: Insulin secretion by isolated Langerhans islets (enzyme immunoassay); type: cell-based; conditions: 10 µM, 30 minutes incubation, compared to the control group
Procedure: To study the effect of betulin and betulinic acid on insulin secretion by pancreatic islet β-cells, their solutions in DMSO were incubated with isolated Langerhans islands in concentrations of 10 µM for 30 minutes, after which the insulin content in the incubation medium was determined by enzyme immunoassay.
The strongest reaction was observed after 30 minutes of incubation in the presence of 10 µM lupane triterpenoids (Figure 1).

[7] = 50 mg/kg/day for 30 days, compared to the untreated group

SMILES | Glucose concentration ([1]; blood collection time 5 hours) | E (DG-6-P activity) ([2]; 5 µM) | remaining activity at 5 µM ([2]; 5 µM) [%] | E (DG-6-P activity) ([2]; 25 µM) | remaining activity at 25 µM ([2]; 25 µM) [%] | area of Langerhans islets and their number ([3]; 50 mg/kg/day for 30 days) | increase of the number of β-cells in the islets [3, 7] | islet diameter increase [3, 7] | morphological picture of the pancreas ([3]; 100 mg/kg/day for 30 days, compared to the untreated group) | reduction in blood glucose levels at the peak of hyperglycemia [4] | time after glucose administration at which glucose indicators normalized [1] [h] | Glucose concentration ([1]; blood collection time 0 hours) | Glucose concentration ([1]; blood collection time 2 hours) | glycogen phosphorylase activity [5] | insulin secretion by pancreatic islet β-cells [6]
C=C(C)[C@@H]1CC[C@]2(COC(C)=O)CC[C@]3(C)[C@H](CC[C@@H]4[C@@]5(C)CC[C@H](OC(C)=O)C(C)(C)[C@@H]5CC[C@]43C)[C@@H]12 [3,28-betulin diacetate] | 8,51±0,52 mmol/l | 0,158±0,002 | 75 | 0,111±0,008 | 52.8 |  |  |  |  |  |  |  |  |  | 
CC1(C)CC[C@]23CC[C@]4(C)[C@H](CC[C@@H]5[C@@]6(C)CC[C@H](O)C(C)(C)[C@@H]6CC[C@]54C)[C@H]2[C@H]1OC3 [Allobetulin] |  | 0,151±0,004 | 72 | 0,103±0,002 | 49 |  |  |  |  |  |  |  |  |  | 
C=C(C)[C@@H]1CC[C@]2(CO)CC[C@]3(C)[C@H](CC[C@@H]4[C@@]5(C)CC[C@H](O)C(C)(C)[C@@H]5CC[C@]43C)[C@@H]12 [Betulin] | 6,01±0,78 mmol/l | 0,149±0,004 | 71 | 0,100±0,002 | 47.6 | tendency to increase | 25-35% | 10-15% | significant improvement | 30-35% | 4 | 10,82±0,31 mmol/l | 22,61±0,4 mmol/l | greatest inhibitory effect | statistically significantly increase
C=C(C)[C@@H]1CC[C@]2(C(=O)O)CC[C@]3(C)[C@H](CC[C@@H]4[C@@]5(C)CC[C@H](O)C(C)(C)[C@@H]5CC[C@]43C)[C@@H]12 [Betulinic acid] | 7,88±1,30* * mmol/l |  | 68.8 |  | 44.2 |  | 25-35% | 10-15% |  | 30-35% | 4 | 10,12±0,70 mmol/l | 25,64±1,50 mmol/l |  | 
C=C(C)[C@@H]1CC[C@]2(C(=O)O)CC[C@]3(C)[C@H](CC[C@@H]4[C@@]5(C)CCC(=O)C(C)(C)[C@@H]5CC[C@]43C)[C@@H]12 [Betulonic acid] | 6,52±0,7 mmol/l | 0,148±0,003 | 70.3 | 0,109±0,007 | 51.9 |  |  |  |  |  |  | 10,32±0,77 mmol/l | 18,5±0,32 mmol/l | greatest inhibitory effect | 
C=C(C)[C@@H]1CC[C@]2(C)CC[C@]3(C)[C@H](CC[C@@H]4[C@@]5(C)CC[C@H](O)C(C)(C)[C@@H]5CC[C@]43C)[C@@H]12 [Lupeol] | 9,38±0,75 mmol/l | 0,143±0,005 | 68 | 0,113±0,009 | 53.6 |  |  |  |  |  |  |  |  |  | 
